Results: patent US20260138962A1, “SYNTHESIS OF DERIVATIVES OF SIPH[…] THERAPEUTIC USE THEREOF” (priority 2022, published 2026)
Converted amounts (≈) assume the structure as drawn. “And” between values parts separate entries of the source, which are not always exact repeats. Equal values may be shown once.

Assays:
MDCK cells = settings: all test concentrations, 50.0 to 3.75 μg/mL
[1] = tested on: Influenza A-type virus (strain 108 617); experiment: Cytopathic Effect Reduction Assay against Influenza A (CERA-1) in MDCK cells; type: cell-based; settings: for IC50: calculated with GraphPad Prism
[2] = tested on: SARS-CoV-2 Wuhan isolate (wild type); experiment: microbe, parasite or virus in culture; type: cell-based; settings: Severe acute respiratory syndrome coronavirus 2, Vero C1008

Row | Structure (SMILES) | toxicity (MDCK cells) | inhibition ([1]; 50.0 μg/mL) | inhibition at 3.75 µg/mL ([1]; Influenza A virus, MDCK, 3.75 μg/mL) | IC50 ([1]; Influenza A virus) | IC50 ([2]; Wuhan strain, in vitro) | inhibition at 0.5 µg/mL ([2]; Wuhan, 0.5 μg/ml, Vero E6 cells) | inhibition at 2 µg/mL ([2]; Wuhan, 2 μg/ml, Vero E6 cells) | inhibition at 5 µg/mL ([2]; Wuhan, 5 μg/ml, Vero E6 cells) | inhibition at 16 µg/mL ([2]; Wuhan, 16 μg/ml, Vero E6 cells) | inhibition at 50 µg/mL ([2]; Wuhan, 50 μg/ml, Vero E6 cells) | inhibition at 50 µg/mL ([1]; Influenza A virus, MDCK, 50.0 μg/mL)
1 | CC1=C2C[C@@H]3[C@@H](C)C=CC(=O)[C@@]3(C)C[C@@]2(O)OC1=O [HLS, (4aR,5S,8aS,9aR)-9a-hydroxy-3,5,8a-trimethyl-4a,5,9,9a-tetrahydronaphtho[2,3-b]furan-2,8(4H,8aH)-dione] | no toxicity | > 100% and > 123% | > 30% | 9.2 µg/mL (≈ 35.1 µM) | 3.03 µg/mL (≈ 11.6 µM) | 25% | 50% | 75% | 100% | 100% | 
2 | NC(=O)c1ncn([C@@H]2O[C@H](CO)[C@@H](O)[C@H]2O)n1 [ribavirin, reference compound] |  |  |  | 2.16 µg/mL (≈ 8.84 µM) |  |  |  |  |  |  | > 105%
